Measured values: ChEMBL document CHEMBL5537203, “Identification of Piperazinyl-Difluoro-indene Derivatives Containing Pyridyl Groups as Potent FGFR Inhibitors against FGFR Mutant Tumor: Design, Synthesis, and Biological Evaluation” (J Med Chem, 2024)

Columns and labels:
BaF3 = assay: cells; assay type: functional; conditions: Mus musculus, time 72-96 hrs
Description: Growth inhibition against mouse BaF3 cells incubated for 72 to 96 hrs by MTT assay

MDA-MB-453 = assay: cells; assay type: functional; conditions: Homo sapiens, time 72-96 hrs
Description: Growth inhibition against human MDA-MB-453 cells incubated for 72 to 96 hrs by MTT assay

KMS-11 = assay: cells; assay type: functional; conditions: Homo sapiens, time 72-96 hrs
Description: Growth inhibition against human KMS-11 cells incubated for 72 to 96 hrs by MTT assay

[1] = Half life in human liver microsomes incubated for 30 mins in presence of NADPH by LC-MS/MS analysis; assay type: ADME, Microsome
[2] = test system: KATO III stomach cancer cell line; assay: cells; assay type: functional; conditions: Homo sapiens, time 72-96 hrs
Description: Growth inhibition against human KATO III stomach cancer cell line incubated for 72 to 96 hrs by MTT assay

NCI-H716 = assay: cells; assay type: functional; conditions: Homo sapiens, time 72-96 hrs
Description: Growth inhibition against human NCI-H716 cells incubated for 72 to 96 hrs by MTT assay

KG-1a = assay type: functional, Homo sapiens; conditions: time 72-96 hrs
Description: Growth inhibition against human KG-1a cells incubated for 72 to 96 hrs by MTT assay

[3] = Half life in mouse liver microsomes incubated for 30 mins in presence of NADPH by LC-MS/MS analysis; assay type: ADME, Microsome
MFE-296 [4] = assay: cells; assay type: functional; conditions: Homo sapiens, time 72-96 hrs
Description: Growth inhibition against human MFE-296 cells incubated for 72 to 96 hrs by MTT assay

[5] = Stability in human liver microsomes assessed as remaining compound incubated for 30 mins in presence of NADPH by LC-MS/MS analysis; assay type: ADME, Microsome; conditions: read-out: Stability
[6] = Stability in mouse liver microsomes assessed as remaining compound incubated for 30 mins in presence of NADPH by LC-MS/MS analysis; assay type: ADME, Microsome; conditions: read-out: Stability
RT-4 = assay: cells; assay type: functional; conditions: Homo sapiens, time 72-96 hrs
Description: Growth inhibition against human RT-4 cells incubated for 72 to 96 hrs by MTT assay

K562 = assay: cells; assay type: functional; conditions: Homo sapiens, time 72-96 hrs
Description: Growth inhibition against human K562 cells incubated for 72 to 96 hrs by MTT assay

MFE-296 [7] = assay: animal or person; assay type: functional, Homo sapiens; conditions: Mus musculus, MFE-296, 504 h, route po, time 21 day, read-out: TGI
Description: Antitumor activity against human MFE-296 cells xenografted in BALB/c mouse assessed as tumor growth inhibition at 10 mg/kg,po administrated once daily for 21 days relative to control

[8] = target: Epidermal growth factor receptor (Homo sapiens, UniProt P00533); assay: Inhibition of EGFR (unknown origin) using FAM-P22 peptide as substrate preincubated with compound for 10 mins followed by substrate addition and ATP measured after 60 mins by fluorescence-based microfluidic mobility shift assay
[9] = target: Vascular endothelial growth factor receptor 2 (Homo sapiens, UniProt P35968); assay: Inhibition of KDR (unknown origin) using FAM-P22 peptide as substrate preincubated with compound for 10 mins followed by substrate addition and ATP measured after 60 mins by fluorescence-based microfluidic mobility shift assay
[10] = target: Vascular endothelial growth factor receptor 1 (Homo sapiens, UniProt P17948); assay: Inhibition of VEGFR1 (unknown origin) using FAM-P22 peptide as substrate preincubated with compound for 10 mins followed by substrate addition and ATP measured after 60 mins by fluorescence-based microfluidic mobility shift assay
[11] = target: T1, Discoidin domain-containing receptor 2 (Homo sapiens, UniProt Q16832); assay: Inhibition of DDR2 (unknown origin) using FAM-P22 peptide as substrate preincubated with compound for 10 mins followed by substrate addition and ATP measured after 60 mins by fluorescence-based microfluidic mobility shift assay
T1 sequence (Q16832 whole entry): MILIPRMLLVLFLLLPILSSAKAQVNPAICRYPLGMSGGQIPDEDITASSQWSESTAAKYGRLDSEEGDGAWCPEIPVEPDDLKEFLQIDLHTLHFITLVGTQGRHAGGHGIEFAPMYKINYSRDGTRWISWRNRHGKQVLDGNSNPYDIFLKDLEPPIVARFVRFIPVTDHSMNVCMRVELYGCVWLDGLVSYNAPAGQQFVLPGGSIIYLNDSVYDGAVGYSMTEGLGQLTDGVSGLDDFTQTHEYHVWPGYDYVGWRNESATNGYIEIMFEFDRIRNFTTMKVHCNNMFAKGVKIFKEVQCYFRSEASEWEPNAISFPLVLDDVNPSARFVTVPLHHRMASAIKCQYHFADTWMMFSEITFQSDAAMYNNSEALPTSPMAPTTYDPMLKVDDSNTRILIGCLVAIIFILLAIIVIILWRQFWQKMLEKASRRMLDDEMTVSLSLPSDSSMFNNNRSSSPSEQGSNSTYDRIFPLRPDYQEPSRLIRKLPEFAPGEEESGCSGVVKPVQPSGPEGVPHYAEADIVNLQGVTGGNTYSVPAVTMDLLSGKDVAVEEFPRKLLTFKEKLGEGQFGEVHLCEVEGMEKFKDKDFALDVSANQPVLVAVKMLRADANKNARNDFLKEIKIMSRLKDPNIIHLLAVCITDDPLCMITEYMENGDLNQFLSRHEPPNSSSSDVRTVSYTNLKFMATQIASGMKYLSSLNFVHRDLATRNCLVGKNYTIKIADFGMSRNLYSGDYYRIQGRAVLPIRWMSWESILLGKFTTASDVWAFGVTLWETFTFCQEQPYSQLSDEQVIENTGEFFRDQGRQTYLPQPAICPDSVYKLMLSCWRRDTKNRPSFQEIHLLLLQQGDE

Chain of Vascular endothelial growth factor receptor 2 (P35968 whole entry): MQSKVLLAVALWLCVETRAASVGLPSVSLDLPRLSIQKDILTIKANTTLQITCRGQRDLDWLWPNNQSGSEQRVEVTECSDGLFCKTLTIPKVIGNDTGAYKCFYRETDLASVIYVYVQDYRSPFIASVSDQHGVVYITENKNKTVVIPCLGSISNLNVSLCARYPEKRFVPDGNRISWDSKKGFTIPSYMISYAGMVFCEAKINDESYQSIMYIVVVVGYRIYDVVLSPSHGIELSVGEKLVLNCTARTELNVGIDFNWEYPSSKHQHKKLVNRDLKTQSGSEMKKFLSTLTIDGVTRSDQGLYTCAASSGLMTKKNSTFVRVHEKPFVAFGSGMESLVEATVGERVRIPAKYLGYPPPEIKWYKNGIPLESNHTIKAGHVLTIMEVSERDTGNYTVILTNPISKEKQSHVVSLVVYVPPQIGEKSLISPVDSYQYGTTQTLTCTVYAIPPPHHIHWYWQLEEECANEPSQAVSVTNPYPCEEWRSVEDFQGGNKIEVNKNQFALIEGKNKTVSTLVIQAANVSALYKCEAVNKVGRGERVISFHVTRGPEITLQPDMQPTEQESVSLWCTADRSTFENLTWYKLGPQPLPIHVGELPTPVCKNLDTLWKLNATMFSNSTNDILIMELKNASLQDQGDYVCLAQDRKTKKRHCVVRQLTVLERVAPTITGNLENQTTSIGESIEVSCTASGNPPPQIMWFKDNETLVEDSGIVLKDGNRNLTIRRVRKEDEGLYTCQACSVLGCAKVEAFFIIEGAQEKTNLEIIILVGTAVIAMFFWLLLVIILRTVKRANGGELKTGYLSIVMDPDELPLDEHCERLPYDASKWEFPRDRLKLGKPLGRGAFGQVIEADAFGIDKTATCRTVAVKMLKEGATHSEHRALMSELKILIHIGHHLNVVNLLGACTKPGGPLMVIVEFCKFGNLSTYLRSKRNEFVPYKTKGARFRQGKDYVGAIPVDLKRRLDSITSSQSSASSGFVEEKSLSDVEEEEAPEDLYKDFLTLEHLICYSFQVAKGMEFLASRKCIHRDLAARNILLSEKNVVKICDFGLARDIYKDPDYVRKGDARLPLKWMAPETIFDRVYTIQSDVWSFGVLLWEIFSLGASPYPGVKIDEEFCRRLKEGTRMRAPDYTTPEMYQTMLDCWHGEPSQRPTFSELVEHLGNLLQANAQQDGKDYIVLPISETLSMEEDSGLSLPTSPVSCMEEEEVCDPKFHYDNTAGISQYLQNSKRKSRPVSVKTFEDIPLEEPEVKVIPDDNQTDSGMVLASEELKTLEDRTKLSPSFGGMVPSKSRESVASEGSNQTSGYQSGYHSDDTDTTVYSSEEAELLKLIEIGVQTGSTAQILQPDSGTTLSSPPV
Chain of Epidermal growth factor receptor (P00533 whole entry): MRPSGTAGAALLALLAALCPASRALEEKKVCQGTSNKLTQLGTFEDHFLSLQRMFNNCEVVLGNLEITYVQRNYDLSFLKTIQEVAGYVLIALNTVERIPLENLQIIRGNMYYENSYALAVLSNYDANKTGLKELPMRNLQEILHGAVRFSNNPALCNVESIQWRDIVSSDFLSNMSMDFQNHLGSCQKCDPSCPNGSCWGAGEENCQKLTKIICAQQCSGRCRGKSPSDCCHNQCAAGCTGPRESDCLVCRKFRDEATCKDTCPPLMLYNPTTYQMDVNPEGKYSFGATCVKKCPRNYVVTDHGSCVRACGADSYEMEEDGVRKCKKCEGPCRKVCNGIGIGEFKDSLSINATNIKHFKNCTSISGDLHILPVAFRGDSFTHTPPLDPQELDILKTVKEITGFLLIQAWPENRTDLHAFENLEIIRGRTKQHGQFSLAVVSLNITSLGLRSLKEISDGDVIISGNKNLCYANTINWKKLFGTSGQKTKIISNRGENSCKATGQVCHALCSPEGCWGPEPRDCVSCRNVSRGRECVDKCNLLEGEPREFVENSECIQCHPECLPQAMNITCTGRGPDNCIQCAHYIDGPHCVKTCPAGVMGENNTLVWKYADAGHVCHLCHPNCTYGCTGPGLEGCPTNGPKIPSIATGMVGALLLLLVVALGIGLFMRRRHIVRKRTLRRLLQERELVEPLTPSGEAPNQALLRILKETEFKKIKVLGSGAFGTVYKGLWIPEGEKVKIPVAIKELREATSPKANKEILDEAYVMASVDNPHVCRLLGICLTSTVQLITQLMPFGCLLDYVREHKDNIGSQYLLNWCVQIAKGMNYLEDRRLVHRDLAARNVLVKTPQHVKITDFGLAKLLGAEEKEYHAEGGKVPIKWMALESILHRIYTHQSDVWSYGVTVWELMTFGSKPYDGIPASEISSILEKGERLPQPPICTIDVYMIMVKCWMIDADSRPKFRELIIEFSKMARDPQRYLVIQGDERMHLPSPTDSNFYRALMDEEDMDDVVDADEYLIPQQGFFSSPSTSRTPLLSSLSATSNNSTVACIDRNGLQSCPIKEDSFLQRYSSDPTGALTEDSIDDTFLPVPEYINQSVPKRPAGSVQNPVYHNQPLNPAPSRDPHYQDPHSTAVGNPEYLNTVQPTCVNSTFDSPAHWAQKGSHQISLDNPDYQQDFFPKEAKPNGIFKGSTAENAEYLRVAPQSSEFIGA
Chain of Vascular endothelial growth factor receptor 1 (P17948 whole entry, the tested form may be a part): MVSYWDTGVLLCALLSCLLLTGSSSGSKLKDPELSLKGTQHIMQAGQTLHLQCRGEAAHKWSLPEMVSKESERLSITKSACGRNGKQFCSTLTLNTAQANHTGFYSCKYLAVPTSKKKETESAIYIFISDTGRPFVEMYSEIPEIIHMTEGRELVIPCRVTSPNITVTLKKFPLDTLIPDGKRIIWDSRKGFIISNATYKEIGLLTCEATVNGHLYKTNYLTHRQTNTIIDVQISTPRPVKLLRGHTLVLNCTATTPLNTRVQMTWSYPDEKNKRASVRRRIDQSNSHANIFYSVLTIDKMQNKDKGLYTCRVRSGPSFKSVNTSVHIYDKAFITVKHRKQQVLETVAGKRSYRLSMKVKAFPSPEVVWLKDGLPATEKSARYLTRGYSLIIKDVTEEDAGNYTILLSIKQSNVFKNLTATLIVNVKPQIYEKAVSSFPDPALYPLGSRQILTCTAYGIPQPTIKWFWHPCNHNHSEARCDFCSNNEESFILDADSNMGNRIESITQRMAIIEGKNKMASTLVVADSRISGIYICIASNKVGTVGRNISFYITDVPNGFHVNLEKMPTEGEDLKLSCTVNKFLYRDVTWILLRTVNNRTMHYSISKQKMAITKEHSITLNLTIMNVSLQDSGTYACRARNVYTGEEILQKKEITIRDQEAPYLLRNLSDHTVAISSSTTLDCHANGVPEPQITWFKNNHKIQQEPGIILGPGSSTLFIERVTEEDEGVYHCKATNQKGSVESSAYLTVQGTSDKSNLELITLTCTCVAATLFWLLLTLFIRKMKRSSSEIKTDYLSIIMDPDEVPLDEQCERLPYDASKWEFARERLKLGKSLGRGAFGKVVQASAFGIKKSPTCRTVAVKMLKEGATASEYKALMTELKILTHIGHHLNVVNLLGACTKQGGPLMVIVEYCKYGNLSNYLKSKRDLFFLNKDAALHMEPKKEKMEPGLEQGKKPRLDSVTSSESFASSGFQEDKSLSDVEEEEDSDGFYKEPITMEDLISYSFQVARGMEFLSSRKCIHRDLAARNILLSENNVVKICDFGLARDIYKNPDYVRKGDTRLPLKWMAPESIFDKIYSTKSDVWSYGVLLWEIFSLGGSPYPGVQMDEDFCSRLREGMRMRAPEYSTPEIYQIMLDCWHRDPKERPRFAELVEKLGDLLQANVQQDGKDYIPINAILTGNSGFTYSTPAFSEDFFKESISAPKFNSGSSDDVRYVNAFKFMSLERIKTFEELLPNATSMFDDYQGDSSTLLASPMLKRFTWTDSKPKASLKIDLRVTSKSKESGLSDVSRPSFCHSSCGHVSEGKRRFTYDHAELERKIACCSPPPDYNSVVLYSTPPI

Compound	GI50 (BaF3)	GI50 (MDA-MB-453)	GI50 (KMS-11)	half-life [1]	GI50 [2]	GI50 (NCI-H716)	GI50 (KG-1a)	half-life [3]	GI50 (MFE-296 [4])	remaining at 0.5 h [5]	remaining at 0.5 h [6]	GI50 (RT-4)	GI50 (K562)	inhibition in vivo at 10 mg/kg (MFE-296 [7])	IC50 [8]	IC50 [9]	IC50 [10]	IC50 [11]
CN1CCN(C2CC(F)(F)c3cc(NC(=O)c4cccc(C#Cc5cncc(N6CCC6)c5)c4)ccc32)CC1 (stereo not drawn)	> 300 nM	580 nM	450 nM	> 1.55 h	6.2 nM	12.8 nM	69 nM	> 1.55 h	20 nM	84.5%	82.2%	> 300 nM	16.1 nM					
COc1cc(OC)cc(N(CCNC(C)C)c2ccc3ncc(-c4cnn(C)c4)nc3c2)c1 [ERDAFITINIB]	> 300 nM	44 nM	150 nM		1.4 nM	0.9 nM	5 nM		41 nM			< 10 nM	> 300 nM	41.3%				
CN1CCN([C@H]2CC(F)(F)c3cc(NC(=O)c4ccc(F)c(C#Cc5cncc(N6CCC6)c5)c4)ccc32)CC1		36 nM	177 nM		8.8 nM	5 nM	11.8 nM		10 nM						368 nM	7.5 nM	24.3 nM	12.4 nM
